According to patent US10947237B2, “Antimicrobial compounds and methods of making and using the same” (BIOVERSYS AG, priority 2015, dated 2021):

What was measured:
[1] = tested on: Eschericia coli (E. Coli) strain ATCC25922; assay: standard microdilution assay, minimum inhibitory concentration (MIC); type: cell-based; conditions: Escherichia coli; Table 2; strain ATCC25922
Protocol: (§1) The in vitro activity of the compounds of the present disclosure can be determined. Antimicrobial testing is typically performed to determine the minimum inhibitory concentration (MIC). Minimum inhibitory concentrations (MICs) are determined by the microdilution method in a final volume of 100 μl according to protocols outlined by The Clinical and Laboratory Standards Institute (CLSI). Performance standards for reference strains are assessed within the same experimental design to maintain quality control. See, for example, Clinical Laboratory Standards Institute: Methods for dilution antimicrobial susceptibility tests for bacteria that grow aerobically M7-A8. Approved Standard-Eighth Edition. Wayne, Pa.: CLSI; December 2008; and Clinical Laboratory Standards Institute: Performance Standards for Antimicrobial Susceptibility Testing M100-S20; Approved Standard-Twentieth Edition. Wayne, Pa.: CLSI; June 2010. The compounds of the present disclosure were tested for antimicrobial activity. The Compounds 1-149 were run against Eschericia coli (E. Coli) strain ATCC25922 and against Staphylococcus aureus (S. aureus) 11540 strain using a standard microdilution assay to determine minimum inhibitory concentrations (MICs). […] It will be recognized by one skilled in the art that the compounds can be assessed against other bacterial organisms and that the presentation of data for activity against Eschericia coli and Staphylococcus aureus are illustrative and in no way is intended to limit the scope of the present disclosure. The compounds of the present disclosure can be assayed against a range of other microorganisms depending upon the performance activity desired to be gathered. Furthermore, the “+” and “−” representation and the selection of a cutoff value of 16 micrograms/mL is also illustrative and in no way is intended to limit the scope of the present disclosure.

[2] = tested on: Staphylococcus aureus (S. aureus) 11540 strain; assay: as above; type: cell-based; conditions: Table 2, 11540 strain
Protocol: as §1

## CC(=N)NCC[C@H]1CCC[C@H](c2ccc(-n3cc4cc(-c5cc(CCC[C@H](C)N)cc(Cl)c5F)[nH]c4nc3=O)cc2)N1 [Compound 1]
[1]
  MIC: ≤ 16 µg/mL
[2]
  MIC: ≤ 16 µg/mL

## CC1=NCC[C@H]2CCC[C@H](c3ccc(-n4cc5cc(-c6cc(CCC[C@H](C)N)cc(Cl)c6F)[nH]c5nc4=O)cc3)N12 [Compound 2]
[1]
  MIC: ≤ 16 µg/mL
[2]
  MIC: ≤ 16 µg/mL

## C[C@H](N)CCCc1cc(Cl)c(F)c(-c2cc3cn(-c4ccc([C@H]5CCC[C@H](CCNC(=N)c6ccccn6)N5)cc4)c(=O)nc3[nH]2)c1 [Compound 3]
[1]
  MIC: ≤ 16 µg/mL
[2]
  MIC: ≤ 16 µg/mL

## C[C@H](N)CCCc1cc(Cl)c(F)c(-c2cc3cn(-c4ccc(CN[C@H](CCNC(=N)N)CNC(=N)N)cc4)c(=O)nc3[nH]2)c1 [Compound 4]
[1]
  MIC: ≤ 16 µg/mL
[2]
  MIC: ≤ 16 µg/mL

## C[C@H](N)CCCc1cc(Cl)c(F)c(-c2cc3cn(-c4ccc([C@@H]5CCC[C@@H](CNCc6cn[nH]c6)N5)cc4)c(=O)nc3[nH]2)c1 [Compound 5]
[1]
  MIC: ≤ 16 µg/mL
[2]
  MIC: ≤ 16 µg/mL

## C[C@H](N)CCCc1cc(Cl)c(F)c(-c2cc3cn(-c4ccc([C@@H]5CCC[C@@H](CNCc6cccnn6)N5)cc4)c(=O)nc3[nH]2)c1 [Compound 6]
[1]
  MIC: ≤ 16 µg/mL
[2]
  MIC: ≤ 16 µg/mL

## C[C@H](N)CCCc1cc(Cl)c(F)c(-c2cc3cn(-c4ccc(CN[C@H](CCNC(=N)N)Cn5ccc(=O)[nH]c5=O)cc4)c(=O)nc3[nH]2)c1 [Compound 7]
[1]
  MIC: ≤ 16 µg/mL
[2]
  MIC: ≤ 16 µg/mL

## Cc1cn(CC[C@@H]2CCC[C@@H](c3ccc(-n4cc5cc(-c6cc(CCC[C@H](C)N)cc(Cl)c6F)[nH]c5nc4=O)cc3)N2)c(=O)o1 [Compound 8]
[1]
  MIC: ≤ 16 µg/mL
[2]
  MIC: ≤ 16 µg/mL

## CC(=O)CNCC[C@@H]1CCC[C@@H](c2ccc(-n3cc4cc(-c5cc(CCC[C@H](C)N)cc(Cl)c5F)[nH]c4nc3=O)cc2)N1 [Compound 9]
[1]
  MIC: ≤ 16 µg/mL
[2]
  MIC: ≤ 16 µg/mL

## C[C@H](N)CCCc1cc(Cl)c(F)c(-c2cc3cn(-c4ccc([C@@H]5CCC[C@@H](Cc6cnc(N)o6)N5)cc4)c(=O)nc3[nH]2)c1 [Compound 10]
[1]
  MIC: > 16 µg/mL
[2]
  MIC: > 16 µg/mL

## Cc1nc[nH]c1CNC[C@@H]1CCC[C@@H](c2ccc(-n3cc4cc(-c5cc(CCC[C@H](C)N)cc(Cl)c5F)[nH]c4nc3=O)cc2)N1 [Compound 11]
[1]
  MIC: ≤ 16 µg/mL
[2]
  MIC: ≤ 16 µg/mL

## C[C@H](N)CCCc1cc(Cl)c(F)c(-c2cc3cn(-c4ccc([C@@H]5CCC[C@@H](CCNc6ncccn6)N5)cc4)c(=O)nc3[nH]2)c1 [Compound 12]
[1]
  MIC: > 16 µg/mL
[2]
  MIC: > 16 µg/mL

## C[C@H](N)CCCc1cc(Cl)c(F)c(-c2cc3cn(-c4ccc(CN[C@@H](CCO)CCNC(=N)N)cc4)c(=O)nc3[nH]2)c1 [Compound 13]
[1]
  MIC: ≤ 16 µg/mL
[2]
  MIC: ≤ 16 µg/mL

## Cc1ccnc(NC[C@@H](CCNC(=N)N)NCc2ccc(-n3cc4cc(-c5cc(CCC[C@H](C)N)cc(Cl)c5F)[nH]c4nc3=O)cc2)c1 [Compound 14]
[1]
  MIC: ≤ 16 µg/mL
[2]
  MIC: ≤ 16 µg/mL

## C[C@H](N)CCCc1cc(Cl)c(F)c(-c2cc3cn(-c4ccc(CN[C@H](CCNC(=N)N)CS(N)(=O)=O)cc4)c(=O)nc3[nH]2)c1 [Compound 15]
[1]
  MIC: ≤ 16 µg/mL
[2]
  MIC: ≤ 16 µg/mL

## C[C@H](N)CCCc1cc(Cl)c(F)c(-c2cc3cn(-c4ccc([C@@H]5CCC[C@@H](CNCc6cc[nH]c(=O)c6)N5)cc4)c(=O)nc3[nH]2)c1 [Compound 16]
[1]
  MIC: ≤ 16 µg/mL
[2]
  MIC: ≤ 16 µg/mL

## C[C@H](N)CCCc1cc(Cl)c(F)c(-c2cc3cn(-c4ccc([C@@H]5CCC[C@@H](CCn6ccoc6=O)N5)cc4)c(=O)nc3[nH]2)c1 [Compound 17]
[1]
  MIC: ≤ 16 µg/mL
[2]
  MIC: ≤ 16 µg/mL

## C[C@H](N)CCCc1cc(Cl)c(F)c(-c2cc3cn(-c4ccc([C@@H]5CCC[C@@H](CNCc6c[nH]nn6)N5)cc4)c(=O)nc3[nH]2)c1 [Compound 18]
[1]
  MIC: > 16 µg/mL
[2]
  MIC: > 16 µg/mL

## C[C@H](N)CCCc1cc(Cl)c(F)c(-c2cc3cn(-c4ccc([C@@H]5CCC[C@@H](CCN6CCOC6=O)N5)cc4)c(=O)nc3[nH]2)c1 [Compound 20]
[1]
  MIC: > 16 µg/mL
[2]
  MIC: > 16 µg/mL

## C[C@H](N)CCCc1cc(Cl)c(F)c(-c2cc3cn(-c4ccc(CN[C@H](CCNC(=N)N)CNc5ccccn5)cc4)c(=O)nc3[nH]2)c1 [Compound 21]
[1]
  MIC: ≤ 16 µg/mL
[2]
  MIC: ≤ 16 µg/mL

## C[C@H](N)CCCc1cc(Cl)c(F)c(-c2cc3cn(-c4ccc([C@@H]5CCC[C@@H](C[C@@H](O)c6ccn[nH]6)N5)cc4)c(=O)nc3[nH]2)c1 [Compound 22]
[1]
  MIC: ≤ 16 µg/mL
[2]
  MIC: ≤ 16 µg/mL

## C[C@H](N)CCCc1cc(Cl)c(F)c(-c2cc3cn(-c4ccc([C@@H]5CCC[C@@H](C[C@H](O)c6ccn[nH]6)N5)cc4)c(=O)nc3[nH]2)c1 [Compound 23]
[1]
  MIC: > 16 µg/mL
[2]
  MIC: ≤ 16 µg/mL

## C[C@H](N)CCCc1cc(Cl)c(F)c(-c2cc3cn(-c4ccc(CN[C@H](CCNC(=N)N)CCc5cnc(N)s5)cc4)c(=O)nc3[nH]2)c1 [Compound 24]
[1]
  MIC: ≤ 16 µg/mL
[2]
  MIC: ≤ 16 µg/mL

## COc1ccc(CNc2ncc(CC[C@@H](CCNC(=N)N)NCc3ccc(-n4cc5cc(-c6cc(CCC[C@H](C)N)cc(Cl)c6F)[nH]c5nc4=O)cc3)s2)cc1 [Compound 25]
[1]
  MIC: ≤ 16 µg/mL
[2]
  MIC: ≤ 16 µg/mL

## C[C@H](N)CCCc1cc(Cl)c(F)c(-c2cc3cn(-c4ccc([C@H]5CCC[C@H](CCNc6ncccn6)N5)cc4)c(=O)nc3[nH]2)c1 [Compound 26]
[1]
  MIC: > 16 µg/mL
[2]
  MIC: ≤ 16 µg/mL

## C[C@H](N)CCCc1cc(Cl)c(F)c(-c2cc3cn(-c4ccc([C@@H]5CCC[C@@H](CCNC6=NCCC6)N5)cc4)c(=O)nc3[nH]2)c1 [Compound 27]
[1]
  MIC: ≤ 16 µg/mL
[2]
  MIC: ≤ 16 µg/mL

## C[C@H](N)CCCc1cc(Cl)c(F)c(-c2cc3cn(-c4ccc([C@@H]5CCC[C@@H](CCNC(=N)CCCCl)N5)cc4)c(=O)nc3[nH]2)c1 [Compound 28]
[1]
  MIC: ≤ 16 µg/mL
[2]
  MIC: ≤ 16 µg/mL

## C[C@H](N)CCCc1cc(Cl)c(F)c(-c2cc3cn(-c4ccc([C@H]5CCC[C@H](CCNC6=NCCC6)N5)cc4)c(=O)nc3[nH]2)c1 [Compound 29]
[1]
  MIC: ≤ 16 µg/mL
[2]
  MIC: ≤ 16 µg/mL

## CCNC[C@@H](CCNC(=N)N)NCc1ccc(-n2cc3cc(-c4cc(CCC[C@H](C)N)cc(Cl)c4F)[nH]c3nc2=O)cc1 [Compound 30]
[1]
  MIC: ≤ 16 µg/mL
[2]
  MIC: ≤ 16 µg/mL

## C[C@H](N)CCCc1cc(Cl)c(F)c(-c2cc3cn(-c4ccc([C@H]5N[C@H](CCNC(=N)N)CCO5)cc4)c(=O)nc3[nH]2)c1 [Compound 31]
[1]
  MIC: ≤ 16 µg/mL
[2]
  MIC: ≤ 16 µg/mL

## C[C@H](N)CCCc1cc(Cl)c(F)c(-c2cc3cn(-c4ccc([C@@H]5N[C@@H](CCNC(=N)N)CCO5)cc4)c(=O)nc3[nH]2)c1 [Compound 32]
[1]
  MIC: ≤ 16 µg/mL
[2]
  MIC: ≤ 16 µg/mL

## C[C@H](N)CCCc1cc(Cl)c(F)c(-c2cc3cn(-c4ccc(CN[C@H](CCNC(=N)N)CNc5ccon5)cc4)c(=O)nc3[nH]2)c1 [Compound 33]
[1]
  MIC: ≤ 16 µg/mL
[2]
  MIC: ≤ 16 µg/mL

## C[C@H](N)CCCc1cc(Cl)c(F)c(-c2cc3cn(-c4ccc([C@@H]5CCC[C@@H](CCNC(=N)N)C5)cc4)c(=O)nc3[nH]2)c1 [Compound 34]
[1]
  MIC: ≤ 16 µg/mL
[2]
  MIC: ≤ 16 µg/mL

## C[C@H](N)CCCc1cc(Cl)c(F)c(-c2cc3cn(-c4ccc([C@H]5CCC[C@H](CCNC(=N)N)C5)cc4)c(=O)nc3[nH]2)c1 [Compound 35]
[1]
  MIC: ≤ 16 µg/mL
[2]
  MIC: ≤ 16 µg/mL

## C[C@H](N)CCCc1cc(Cl)c(F)c(-c2cc3cn(-c4ccc(CN[C@H](CCNC(=N)N)CNc5cccc6sccc56)cc4)c(=O)nc3[nH]2)c1 [Compound 36]
[1]
  MIC: ≤ 16 µg/mL
[2]
  MIC: ≤ 16 µg/mL
